Measured values: US12440433B2, “Brightening cosmetic composition comprising sodium pyruvate as active ingredient” (LG HOUSEHOLD & HEALTH CARE LTD., priority 2020, dated 2025)

System: B16F10 cells
Experiment: Melanogenesis inhibitory efficiency test (melanin amount in α-MSH-stimulated B16F10 cells)
Assay type: cell-based
Conditions: for Melanin amount (%) / Melanogenesis inhibitory efficiency (symbol): 10 nM α-MSH; for Melanin amount (%) / Melanogenesis inhibitory efficiency / Melanogenesis inhibitory efficiency (symbol): 48 hours; for Melanin amount (%): absorbance at 405 nm, ingredient concentrations (wt %) per Table 1; for Melanogenesis inhibitory efficiency: (Melanin amount upon no treatment − upon treatment)/(upon no treatment) × 100, 10 nM α-MSH; for melanogenesis inhibitory effect (in words): urea or hydroxyethyl urea used alone; for Melanogenesis inhibitory efficiency (symbol): symbol for no effect
Method: In order to confirm melanogenesis inhibitory efficacy caused by sodium pyruvate, first, B16F10 cells were dispensed into a 6-well plate at 1×10^5 cells/well and cultured in a DMEM medium containing 10% FBS and 1% penicillin/streptomycin under conditions of 37° C. and 5% CO2 for 24 hours. […] The resulting cells were harvested, added to 100 μl of a lysis buffer (1N NaOH, 10% DMSO), and then allowed to react at 90° C. for 20 minutes, and melanin amounts were measured at 405 nm (EPOCH, Biotek). The melanin amount measurement results are as follows.

CC(=O)C(=O)[O-].[Na+] [Comparative Example 11, sodium pyruvate]
Melanin amount (%): 64% | Melanogenesis inhibitory efficiency: 36%

NC(=O)NCCO [compound 2, hydroxyethyl urea]
melanogenesis inhibitory effect (in words): a melanogenesis inhibitory effect was not shown

NC(=O)NCCO [compound 3, hydroxyethyl urea]
Melanin amount (%): 100% | Melanogenesis inhibitory efficiency (symbol): *** (100 or more has no effect)

NC(N)=O [compound 4, urea]
Melanin amount (%): 100% | Melanogenesis inhibitory efficiency (symbol): *** (100 or more has no effect) | melanogenesis inhibitory effect (in words): a melanogenesis inhibitory effect was not shown

CC(=O)C(=O)[O-].[Na+] [compound 8, sodium pyruvate]
Melanin amount (%): 92% | Melanogenesis inhibitory efficiency: 8%

CC(=O)C(=O)[O-].[Na+] [compound 9, sodium pyruvate]
Melanin amount (%): 82% | Melanogenesis inhibitory efficiency: 18%

CC(=O)C(=O)[O-].[Na+] [compound 10, sodium pyruvate]
Melanin amount (%): 77% | Melanogenesis inhibitory efficiency: 23%
